Test results published in BigSolDB 2.1.

solubility (mole fraction) (in 1,4-dioxane, 298.15 K)	solubility (mole fraction) (in 1,4-dioxane, 303.15 K)	solubility (mole fraction) (in 1,4-dioxane, 308.15 K)	solubility (mole fraction) (in 1,4-dioxane, 313.15 K)	solubility (mole fraction) (in 1,4-dioxane, 318.15 K)	solubility (mole fraction) (in DMF, 298.15 K)	solubility (mole fraction) (in DMF, 303.15 K)	solubility (mole fraction) (in DMF, 308.15 K)	solubility (mole fraction) (in DMF, 313.15 K)	solubility (mole fraction) (in DMF, 318.15 K)	SMILES
0.00617	0.00623	0.00622	0.00624	0.00628	0.00696	0.007	0.0071	0.0072	0.00721	O=C(/C=C/c1ccc(-c2cccc([N+](=O)[O-])c2)o1)c1ccc2ccc(=O)oc2c1
0.00732	0.00733	0.00737	0.00742	0.00744	0.0112	0.0112	0.0113	0.0113	0.0114	COc1ccc(C(=O)/C=C/c2ccc(-c3cccc([N+](=O)[O-])c3)o2)cc1
0.00705	0.00707	0.0071	0.00711	0.00714	0.0094	0.00945	0.0095	0.0095	0.00959	O=C(/C=C/c1ccc(-c2cccc([N+](=O)[O-])c2)o1)CO
0.00553	0.0056	0.00565	0.00571	0.00573	0.00983	0.0099	0.00998	0.0101	0.0101	O=C(/C=C/c1ccc(-c2cccc([N+](=O)[O-])c2)o1)c1ccccc1
0.00489	0.00491	0.00495	0.00501	0.00501	0.00705	0.0071	0.00714	0.00722	0.00726	O=C(/C=C/c1ccc(-c2cccc([N+](=O)[O-])c2)o1)c1ccc(Br)cc1
0.00596	0.00601	0.00602	0.00605	0.00608	0.00604	0.0061	0.00614	0.0062	0.0062	O=C(/C=C/c1ccc(-c2cccc([N+](=O)[O-])c2)o1)c1cccc([N+](=O)[O-])c1
0.00271	0.00272	0.00277	0.00282	0.00284	0.0045	0.0046	0.00468	0.0047	0.0048	O=C(/C=C/c1ccc(-c2cccc([N+](=O)[O-])c2)o1)c1ccc(Cl)cc1
0.00573	0.0058	0.00581	0.00591	0.00592	0.00665	0.0067	0.00675	0.0068	0.00692	O=C(/C=C/c1ccc(-c2cccc([N+](=O)[O-])c2)o1)c1ccc(O)cc1
0.00229	0.00232	0.00239	0.00241	0.00245	0.00237	0.0024	0.00244	0.00245	0.00248	O=C(/C=C/c1ccc(-c2cccc([N+](=O)[O-])c2)o1)c1ccc([N+](=O)[O-])cc1
0.00245	0.00248	0.0025	0.00252	0.00255	0.00264	0.00264	0.00264	0.00264	0.00264	Nc1ccc(C(=O)/C=C/c2ccc(-c3cccc([N+](=O)[O-])c3)o2)cc1
